Results: US20230233576A1, “ECLITASERTIB FOR USE IN TREATING CONDITIONS INVOLVING SYSTEMIC HYPERINFLAMMATORY RESPONSE” (priority 2020, published 2023)

System: adult participants hospitalized for severe COVID-19
Experiment: Phase 1b severe COVID-19 study: clinical laboratory abnormalities (PCSA)
Type: in vivo, human
Details: TEAE period
Experimental: Standard clinical laboratory parameters (hematology, blood chemistry) were measured per protocol.
For laboratory parameters (hematology, clinical chemistry, and urinalysis), vital signs, and ECG, incidences of potentially clinically significant abnormality (PCSA) values, actual values and change from baseline were summarized by treatment group.
For all laboratory, vital signs and ECG parameters, raw data and change from baseline were summarized in descriptive statistics by treatment group and scheduled time of measurement, with the exception of AST, ALT and alkaline phosphatase: instead of summarizing data in descriptive statistics, participants' profiles were presented through graphics by treatment group and with a color code to identify sites. The reason was that blood samples were processed by local laboratories with different normal ranges. For the rest of clinical laboratory these parameters it is reasonable to pool data as they are standard procedure and no significant differences in normal ranges were expected.

[1] = abnormal baseline (LLN/ULN or PCSA), 600 mg (N = 47), safety population
[2] = all baseline values counted in one unique group (as normal), 600 mg (N = 47), safety population
[3] = missing baseline, 600 mg (N = 47), safety population
[4] = normal baseline, 600 mg (N = 47), safety population

With `CN1C(=O)[C@@H](NC(=O)c2nnc(Cc3ccccc3)[nH]2)COc2cccnc21` [RIPK1 Inhibitor, (S)-5-benzyl-N-(5-methyl-4-oxo-2,3,4,5-tetrahydropyrido[3,2-b][1,4]oxazepin-3-yl)-4H-1,2,4-triazole-3-carboxamide] the “participants with ALT>3 ULN” value (600 mg) was 9 participants, the “participants with ALT>5 ULN” value (600 mg) was 1 participants and the “participants with AST>5 ULN” value (600 mg) was 1 participants. For the same compound, the “participants with PCSAs of AST>3 ULN” value (600 mg) was 2 participants, the “participants with alkaline phosphatase>1.5 ULN” value (600 mg) was 2 participants and the “participants with total bilirubin>1.5 ULN” value (600 mg) was “One”. For the same compound, the “PCSA Alanine Aminotransferase (ALT) >3 ULN” value [1] was 7/20, the “PCSA Alanine Aminotransferase (ALT) >5 ULN” value [1] was 0/20 and the “PCSA Alanine Aminotransferase (ALT) >10 ULN” value [1] was 0/20. The “PCSA Alanine Aminotransferase (ALT) >20 ULN” value [1] was 0/20, the “PCSA Albumin ≤25 g/L” value [1] was 0/28 and the “PCSA Alkaline Phosphatase >1.5 ULN” value [1] was 0/0. For the same compound, the “PCSA Aspartate Aminotransferase (AST) >3 ULN” value [1] was 1/24, the “PCSA Aspartate Aminotransferase (AST) >5 ULN” value [1] was 0/24 and the “PCSA Aspartate Aminotransferase (AST) >10 ULN” value [1] was 0/24. The “PCSA Basophils >0.1 * 10^9/L” value [1] was 0/0, the “PCSA C-Reactive Protein >2 ULN or >10 mg/L (if ULN not provided)” value [1] was 42/46 and the “PCSA Conjugated bilirubin >35% Bilirubin and Bilirubin >1.5 ULN” value [1] was 0/0. The “PCSA Creatinine Clearance (CG) <15 mL/min (end stage renal disease)” value [1] was 0/18, the “PCSA Creatinine Clearance (CG) ≥15-<30 mL/min (severe decrease in GFR)” value [1] was 0/18 and the “PCSA Creatinine Clearance (CG) ≥30-<60 mL/min (moderate decrease in GFR)” value [1] was 4/18. For the same compound, the “PCSA Creatinine Clearance (CG) ≥60-<90 mL/min (mild decrease in GFR)” value [1] was 11/18, the “PCSA Creatinine ≥150 μmol/L (Adults)” value [1] was 1/8 and the “PCSA Eosinophils >0.5 * 10^9/L or >ULN (if ULN ≥ 0.5 * 10^9/L)” value [1] was 0/9. For the same compound, the “PCSA Erythrocyte Count (RBC) ≥6 * 10^12/L” value [1] was 1/17, the “PCSA Glucose ≤3.9 mmol/L and <LLN” value [1] was 1/33 and the “PCSA Glucose ≥11.1 mmol/L (unfasted); ≥7 mmol/L (fasted)” value (“PCSA Glucose ≥11.1 mmol/L (unfasted)” below) [1] was 18/33. For the same compound, the “PCSA Hematocrit ≤0.37 v/v (Male); ≤0.32 v/v (Female)” value [1] was 11/17, the “PCSA Hematocrit ≥0.55 v/v (Male); ≥0.5 v/v (Female)” value [1] was 0/17 and the “PCSA Hemoglobin ≤115 g/L (Male); ≤95 g/L (Female)” value [1] was 4/18. For the same compound, the “PCSA Hemoglobin ≥185 g/L (Male); ≥165 g/L (Female)” value [1] was 0/18, the “PCSA Lymphocytes >4 * 10^9/L” value [1] was 2/11 and the “PCSA Monocytes >0.7 * 10^9/L” value [1] was 6/10. The “PCSA Neutrophils <1.5 * 10^9/L (Non-Black); <1 * 10^9/L (Black)” value [1] was 0/8, the “PCSA Platelet Count <100 * 10^9/L” value [1] was 1/11 and the “PCSA Platelet Count ≥700 * 10^9/L” value [1] was 1/11. The “PCSA Potassium <3 mmol/L” value [1] was 0/7, the “PCSA Potassium ≥5.5 mmol/L” value [1] was 1/7 and the “PCSA Sodium ≤129 mmol/L” value [1] was 0/8. The “PCSA Sodium ≥160 mmol/L” value [1] was 0/8, the “PCSA Total Bilirubin >1.5 ULN” value [1] was 0/2 and the “PCSA Total Bilirubin >2 ULN” value [1] was 0/2. The “PCSA White blood cell count <3 * 10^9/L (Non-Black); <2 * 10^9/L (Black)” value [1] was 0/10, the “PCSA White blood cell count ≥16 * 10^9/L” value [1] was 1/10 and the “PCSA Creatinine ≥30% change from baseline” value [2] was 3/47. For the same compound, the “PCSA Creatinine ≥100% change from baseline” value [2] was 0/47, the “PCSA Hemoglobin Decrease from baseline ≥20 g/L” value [2] was 4/47 and the “PCSA Alanine Aminotransferase (ALT) >3 ULN” value [3] was 0/0. For the same compound, the “PCSA Alanine Aminotransferase (ALT) >5 ULN” value [3] was 0/0, the “PCSA Alanine Aminotransferase (ALT) >10 ULN” value [3] was 0/0 and the “PCSA Alanine Aminotransferase (ALT) >20 ULN” value [3] was 0/0. For the same compound, the “PCSA Albumin ≤25 g/L” value [3] was 0/0, the “PCSA Alkaline Phosphatase >1.5 ULN” value [3] was 0/0 and the “PCSA Aspartate Aminotransferase (AST) >3 ULN” value [3] was 0/0. For the same compound, the “PCSA Aspartate Aminotransferase (AST) >5 ULN” value [3] was 0/0, the “PCSA Aspartate Aminotransferase (AST) >10 ULN” value [3] was 0/0 and the “PCSA C-Reactive Protein >2 ULN or >10 mg/L (if ULN not provided)” value [3] was 0/0. The “PCSA Conjugated bilirubin >35% Bilirubin and Bilirubin >1.5 ULN” value [3] was 0/1, the “PCSA Glucose ≤3.9 mmol/L and <LLN” value [3] was 0/3 and the “PCSA Glucose ≥11.1 mmol/L (unfasted)” value [3] was 3/3. The “PCSA Total Bilirubin >1.5 ULN” value [3] was 0/0, the “PCSA Total Bilirubin >2 ULN” value [3] was 0/0 and the “PCSA Alanine Aminotransferase (ALT) >3 ULN” value [4] was 2/27. The “PCSA Alanine Aminotransferase (ALT) >5 ULN” value [4] was 1/27, the “PCSA Alanine Aminotransferase (ALT) >10 ULN” value [4] was 0/27 and the “PCSA Alanine Aminotransferase (ALT) >20 ULN” value [4] was 0/27. For the same compound, the “PCSA Albumin ≤25 g/L” value [4] was 0/18, the “PCSA Alkaline Phosphatase >1.5 ULN” value [4] was 2/46 and the “PCSA Aspartate Aminotransferase (AST) >3 ULN” value [4] was 1/23. For the same compound, the “PCSA Aspartate Aminotransferase (AST) >5 ULN” value [4] was 1/23, the “PCSA Aspartate Aminotransferase (AST) >10 ULN” value [4] was 0/23 and the “PCSA Basophils >0.1 * 10^9/L” value [4] was 3/29. The “PCSA C-Reactive Protein >2 ULN or >10 mg/L (if ULN not provided)” value [4] was 0/1, the “PCSA Conjugated bilirubin >35% Bilirubin and Bilirubin >1.5 ULN” value [4] was 0/46 and the “PCSA Creatinine Clearance (CG) <15 mL/min (end stage renal disease)” value [4] was 0/29. For the same compound, the “PCSA Creatinine Clearance (CG) ≥15-<30 mL/min (severe decrease in GFR)” value [4] was 0/29, the “PCSA Creatinine Clearance (CG) ≥30-<60 mL/min (moderate decrease in GFR)” value [4] was 0/29 and the “PCSA Creatinine Clearance (CG) ≥60-<90 mL/min (mild decrease in GFR)” value [4] was 5/29. For the same compound, the “PCSA Creatinine ≥150 μmol/L (Adults)” value [4] was 0/39, the “PCSA Eosinophils >0.5 * 10^9/L or >ULN (if ULN ≥ 0.5 * 10^9/L)” value [4] was 1/20 and the “PCSA Erythrocyte Count (RBC) ≥6 * 10^12/L” value [4] was 0/30. The “PCSA Glucose ≤3.9 mmol/L and <LLN” value [4] was 1/10, the “PCSA Glucose ≥11.1 mmol/L (unfasted)” value [4] was 5/10 and the “PCSA Hematocrit ≤0.37 v/v (Male); ≤0.32 v/v (Female)” value [4] was 4/30. The “PCSA Hematocrit ≥0.55 v/v (Male); ≥0.5 v/v (Female)” value [4] was 0/30, the “PCSA Hemoglobin ≤115 g/L (Male); ≤95 g/L (Female)” value [4] was 1/29 and the “PCSA Hemoglobin ≥185 g/L (Male); ≥165 g/L (Female)” value [4] was 0/29. For the same compound, the “PCSA Lymphocytes >4 * 10^9/L” value [4] was 3/18, the “PCSA Monocytes >0.7 * 10^9/L” value [4] was 12/19 and the “PCSA Neutrophils <1.5 * 10^9/L (Non-Black); <1 * 10^9/L (Black)” value [4] was 2/21. The “PCSA Platelet Count <100 * 10^9/L” value [4] was 0/36, the “PCSA Platelet Count ≥700 * 10^9/L” value [4] was 0/36 and the “PCSA Potassium <3 mmol/L” value [4] was 0/40. For the same compound, the “PCSA Potassium ≥5.5 mmol/L” value [4] was 4/40, the “PCSA Sodium ≤129 mmol/L” value [4] was 1/39 and the “PCSA Sodium ≥160 mmol/L” value [4] was 0/39. The “PCSA Total Bilirubin >1.5 ULN” value [4] was 1/45, the “PCSA Total Bilirubin >2 ULN” value [4] was 0/45 and the “PCSA White blood cell count <3 * 10^9/L (Non-Black); <2 * 10^9/L (Black)” value [4] was 1/37. The “PCSA White blood cell count ≥16 * 10^9/L” value [4] was 2/37.
